{"source": "patent US20130281399A1", "about": "“TREATMENT OF DISEASES BY EPIGENETIC REGULATION” (RVX Therapeutics Inc., priority 2012, published 2013)", "data": [{"target": "T1, Brd4 bromodomain 1 (Homo sapiens, UniProt O60885)", "T1 construct": "made in house; host or cells: E. coli BL21(DE3)", "test": "Inhibition of binding of tetra-acetylated histone H4 to Brd4 bromodomain 1 (TR-FRET)", "settings": "His-tagged Brd4 bromodomain 1 200 nM, tetra-acetylated histone H4 peptide 25-50 nM, 2 hours room temperature", "procedure": "Proteins were cloned and overexpressed with a N-terminal 6×His tag, then purified by nickel affinity followed by size exclusion chromatography. Briefly, E. coli BL21(DE3) cells were transformed with a recombinant expression vector encoding N-terminally Nickel affinity tagged bromodomains from Brd2, Brd3, Brd4. Cell cultures were incubated at 37° C. with shaking to the appropriate density and induced overnight with IPTG. The supernatant of lysed cells was loaded onto Ni-IDA column for purification. Eluted protein was pooled, concentrated and further purified by size exclusion chromatography. Fractions representing monomeric protein were pooled, concentrated, aliquoted, and frozen at −80° C. for use in subsequent experiments.\nFor inhibition assays, serially diluted test compound was added to these reactions in a 0.2% final concentration of DMSO. Final buffer concentrations were 30 mM HEPES pH 7.4, 30 mM NaCl, 0.3 mM CHAPS, 20 mM phosphate pH 7.0, 320 mM KF, 0.08% BSA). […] The binding inhibitory activity was shown by a decrease in 665 nm fluorescence relative to 620 nm. IC50 values were determined from a dose response curve.", "values": [{"smiles": "COc1cc(OC)c2c(=O)[nH]c(-c3ccc(N4CCN(CCO)CC4)cc3)nc2c1", "note": "[Example 1, 2-(4-(4-(2-hydroxyethyl)piperazin-1-yl)phenyl)-5,7-dimethoxyquinazolin-4(3H)-one]", "FRET activity (<50 uM)": "Active"}, {"smiles": "CCCCN1CCN(c2ccc(-c3nc4cc(OC)cc(OC)c4c(=O)[nH]3)cc2)CC1", "note": "[Example 2, 2-(4-(4-butylpiperazin-1-yl)phenyl)-5,7-dimethoxyquinazolin-4(3H)-one]", "FRET activity (<50 uM)": "Active"}, {"smiles": "COc1cc(OC)c2c(=O)[nH]c(-c3ccc(C4CCN(C(C)=O)CC4)cc3)nc2c1", "note": "[Example 3, 2-(4-(1-acetylpiperidin-4-yl)phenyl)-5,7-dimethoxyquinazolin-4(3H)-one]", "FRET activity (<50 uM)": "Active"}, {"smiles": "COc1cc(OC)c2c(=O)[nH]c(-c3ccc(N4CCC(NCC5CC5)C4)cc3)nc2c1", "note": "(stereo not shown) [Example 4, 2-(4-(3-(cyclopropylmethylamino)pyrrolidin-1-yl)phenyl)-5,7-dimethoxyquinazolin-4(3H)-one]", "FRET activity (<50 uM)": "Active"}, {"smiles": "COc1cc(OC)c2c(=O)[nH]c(-c3cc(C)c(OCCC4CN(C(C)=O)C4)c(C)c3)nc2c1", "note": "[Example 5, 2-(4-(2-(1-acetylazetidin-3-yl)ethoxy)-3,5-dimethylphenyl)-5,7-dimethoxyquinazolin-4(3H)-one]", "FRET activity (<50 uM)": "Active"}, {"smiles": "COc1cc(OCCOC(C)C)c2c(=O)[nH]c(-c3cc(C)nc(C)c3)nc2c1", "note": "[Example 6, 2-(2,6-dimethylpyridin-4-yl)-5-(2-isopropoxyethoxy)-7-methoxyquinazolin-4(3H)-one]", "FRET activity (<50 uM)": "Active"}, {"smiles": "COc1cc(OC)c2c(=O)[nH]c(-c3ccc(N4C[C@@H](C)N(C(C)=O)[C@@H](C)C4)cc3)nc2n1", "note": "[Example 7, 2-(4-((3R,5S)-4-Acetyl-3,5-dimethylpiperazin-1-yl)phenyl)-5,7-dimethoxypyrido[2,3-d]pyrimidin-4(3H)-one]", "FRET activity (<50 uM)": "Active"}, {"smiles": "COc1cc(OC)c2c(=O)[nH]c(-c3ccc(N4CCN(C(C)=O)CC4)cc3)nc2c1", "note": "[Example 11, 2-(4-(4-Acetylpiperazin-1-yl)phenyl)-5,7-dimethoxyquinazolin-4(3H)-one]", "FRET activity (<50 uM)": "Active"}, {"smiles": "COc1cc(OC)c2c(=O)[nH]c(-c3ccc(N4CCNCC4)cc3)nc2c1", "note": "[Example 12, 5,7-Dimethoxy-2-(4-(piperazin-1-yl)phenyl)quinazolin-4(3H)-one]", "FRET activity (<50 uM)": "Active"}, {"smiles": "COc1cc(OC)c2c(=O)[nH]c(-c3ccc(N4CCC(NC(C)=O)CC4)cc3)nc2c1", "note": "[Example 13, N-(1-(4-(5,7-Dimethoxy-4-oxo-3,4-dihydroquinazolin-2-yl)phenyl)piperidin-4-yl)acetamide]", "FRET activity (<50 uM)": "Active"}, {"smiles": "COc1cc(OC)c2c(=O)[nH]c(-c3ccc(N4CCC(NS(C)(=O)=O)CC4)cc3)nc2c1", "note": "[Example 14, N-(1-(4-(5,7-Dimethoxy-4-oxo-3,4-dihydroquinazolin-2-yl)phenyl)piperidin-4-yl)methanesulfonamide]", "FRET activity (<50 uM)": "Active"}, {"smiles": "COc1cc(OC)c2c(=O)[nH]c(-c3ccc(N4CCC(NC(=O)N(C)C)CC4)cc3)nc2c1", "note": "[Example 15, 3-(1-(4-(5,7-Dimethoxy-4-oxo-3,4-dihydroquinazolin-2-yl)phenyl)piperidin-4-yl)-1,1-dimethylurea]", "FRET activity (<50 uM)": "Active"}, {"smiles": "CCCCCC(=O)N1CCN(c2ccc(-c3nc4cc(OC)cc(OC)c4c(=O)[nH]3)cc2)CC1", "note": "[Example 16, 2-(4-(4-Hexanoylpiperazin-1-yl)phenyl)-5,7-dimethoxyquinazolin-4(3H)-one]", "FRET activity (<50 uM)": "Inactive"}, {"smiles": "COc1cc(OC)c2c(=O)[nH]c(-c3ccc(N4CCN(C(=O)C(C)C)CC4)cc3)nc2c1", "note": "[Example 17, 2-(4-(4-Isobutyrylpiperazin-1-yl)phenyl)-5,7-dimethoxyquinazolin-4(3H)-one]", "FRET activity (<50 uM)": "Active"}, {"smiles": "COc1cc(OC)c2c(=O)[nH]c(-c3ccc(N4CCN(C(=O)c5ccccc5)CC4)cc3)nc2c1", "note": "[Example 18, 2-(4-(4-Benzoylpiperazin-1-yl)phenyl)-5,7-dimethoxyquinazolin-4(3H)-one]", "FRET activity (<50 uM)": "Inactive"}, {"smiles": "COc1cc(OC)c2c(=O)[nH]c(-c3ccc(N4CCN(C(=O)c5ccc(F)cc5)CC4)cc3)nc2c1", "note": "[Example 19, 2-(4-(4-(4-Fluorobenzoyl)piperazin-1-yl)phenyl)-5,7-dimethoxyquinazolin-4(3H)-one]", "FRET activity (<50 uM)": "Inactive"}, {"smiles": "COc1cc(OC)c2c(=O)[nH]c(-c3ccc(N4CCC(NC(=O)c5ccccc5)CC4)cc3)nc2c1", "note": "[Example 20, N-(1-(4-(5,7-Dimethoxy-4-oxo-3,4-dihydroquinazolin-2-yl)phenyl)piperidin-4-yl)benzamide]", "FRET activity (<50 uM)": "Inactive"}, {"smiles": "COc1cc(OC)c2c(=O)[nH]c(-c3ccc(N4CCN(C(=O)c5ccccn5)CC4)cc3)nc2c1", "note": "[Example 21, 5,7-Dimethoxy-2-(4-(4-picolinoylpiperazin-1-yl)phenyl)quinazolin-4(3H)-one]", "FRET activity (<50 uM)": "Active"}, {"smiles": "COc1cc(OC)c2c(=O)[nH]c(-c3ccc(N4CCN(C(=O)c5cccnc5)CC4)cc3)nc2c1", "note": "[Example 22, 5,7-Dimethoxy-2-(4-(4-nicotinoylpiperazin-1-yl)phenyl)quinazolin-4(3H)-one]", "FRET activity (<50 uM)": "Active"}, {"smiles": "COc1cc(OC)c2c(=O)[nH]c(-c3ccc(N4CCN(C(=O)c5ccncc5)CC4)cc3)nc2c1", "note": "[Example 23, 2-(4-(4-Isonicotinoylpiperazin-1-yl)phenyl)-5,7-dimethoxyquinazolin-4(3H)-one]", "FRET activity (<50 uM)": "Active"}, {"smiles": "COc1cc(OC)c2c(=O)[nH]c(-c3ccc(N4CCN(C(=O)c5cccs5)CC4)cc3)nc2c1", "note": "[Example 24, 5,7-Dimethoxy-2-(4-(4-(thiophene-2-carbonyl)piperazin-1-yl)phenyl)quinazolin-4(3H)-one]", "FRET activity (<50 uM)": "Active"}, {"smiles": "COc1cc(OC)c2c(=O)[nH]c(-c3ccc(N4CCN(C(=O)c5cnn(C)c5Cl)CC4)cc3)nc2c1", "note": "[Example 25, 2-(4-(4-(5-Chloro-1-methyl-1H-pyrazole-4-carbonyl)piperazin-1-yl)phenyl)-5,7-dimethoxyquinazolin-4(3H)-one]", "FRET activity (<50 uM)": "Inactive"}, {"smiles": "COc1cc(OC)c2c(=O)[nH]c(-c3ccc(N4CCN(C(=O)CC(F)(F)F)CC4)cc3)nc2c1", "note": "[Example 26, 5,7-Dimethoxy-2-(4-(4-(3,3,3-trifluoropropanoyl)piperazin-1-yl)phenyl)quinazolin-4(3H)-one]", "FRET activity (<50 uM)": "Active"}, {"smiles": "COc1cc(OC)c2c(=O)[nH]c(-c3ccc(N4CCN(C(=O)c5cc(Cl)sc5Cl)CC4)cc3)nc2c1", "note": "[Example 27, 2-(4-(4-(2,5-Dichlorothiophene-3-carbonyl)piperazin-1-yl)phenyl)-5,7-dimethoxyquinazolin-4(3H)-one]", "FRET activity (<50 uM)": "Active"}, {"smiles": "COc1cc(OC)c2c(=O)[nH]c(-c3ccc(N4CCN(C(=O)C5CC5)CC4)cc3)nc2c1", "note": "[Example 28, 2-(4-(4-(Cyclopropanecarbonyl)piperazin-1-yl)phenyl)-5,7-dimethoxyquinazolin-4(3H)-one]", "FRET activity (<50 uM)": "Active"}, {"smiles": "COc1cc(OC)c2c(=O)[nH]c(-c3ccc(N4CCN(Cc5ccc(F)cc5)CC4)cc3)nc2c1", "note": "[Example 29, 2-(4-(4-(4-Fluorobenzyl)piperazin-1-yl)phenyl)-5,7-dimethoxyquinazolin-4(3H)-one]", "FRET activity (<50 uM)": "Inactive"}, {"smiles": "COc1cc(OC)c2c(=O)[nH]c(-c3ccc(N4CCN(Cc5ccccc5)CC4)cc3)nc2c1", "note": "[Example 30, 2-(4-(4-Benzylpiperazin-1-yl)phenyl)-5,7-dimethoxyquinazolin-4(3H)-one]", "FRET activity (<50 uM)": "Inactive"}, {"smiles": "O=c1[nH]c(-c2ccc(N3CCN(CC(F)(F)F)CC3)cc2)nc2ccccc12", "note": "[Example 31, 2-(4-(4-(2,2,2-Trifluoroethyl)piperazin-1-yl)phenyl)quinazolin-4(3H)-one]", "FRET activity (<50 uM)": "Inactive"}, {"smiles": "COc1cc(OC)c2c(=O)[nH]c(-c3ccc(N4CCCN(C(C)=O)CC4)cc3)nc2c1", "note": "[Example 32, 2-(4-(4-Acetyl-1,4-diazepan-1-yl)phenyl)-5,7-dimethoxyquinazolin-4(3H)-one]", "FRET activity (<50 uM)": "Active"}, {"smiles": "COc1cc(OC)c2c(=O)[nH]c(-c3ccc(N4CCCNCC4)cc3)nc2c1", "note": "[Example 33, 2-(4-(1,4-Diazepan-1-yl)phenyl)-5,7-dimethoxyquinazolin-4(3H)-one]", "FRET activity (<50 uM)": "Active"}, {"smiles": "COc1cc(OC)c2c(=O)[nH]c(-c3ccc(N4CCCN(C)CC4)cc3)nc2c1", "note": "[Example 34, 5,7-Dimethoxy-2-(4-(4-methyl-1,4-diazepan-1-yl)phenyl)quinazolin-4(3H)-one]", "FRET activity (<50 uM)": "Active"}, {"smiles": "CCN(C(C)=O)C1CCN(c2ccc(-c3nc4cc(OC)cc(OC)c4c(=O)[nH]3)cc2)CC1", "note": "[Example 35, N-(1-(4-(5,7-Dimethoxy-4-oxo-3,4-dihydroquinazolin-2-yl)phenyl)piperidin-4-yl)-N-ethylacetamide]", "FRET activity (<50 uM)": "Active"}, {"smiles": "COc1cc(OC)c2c(=O)[nH]c(-c3ccc(N4C[C@@H](C)N(C(C)=O)[C@@H](C)C4)cc3)nc2c1", "note": "[Example 36, 2-(4-((3R,5S)-4-Acetyl-3,5-dimethylpiperazin-1-yl)phenyl)-5,7-dimethoxyquinazolin-4(3H)-one]", "FRET activity (<50 uM)": "Active"}, {"smiles": "COc1cc(OC)c2c(=O)[nH]c(-c3ccc(N4C[C@@H](C)N[C@@H](C)C4)cc3)nc2c1", "note": "[Example 37, 2-(4-((3R,5S)-3,5-Dimethylpiperazin-1-yl)phenyl)-5,7-dimethoxyquinazolin-4(3H)-one]", "FRET activity (<50 uM)": "Active"}]}]}
